Patent EP3057949B1, “SECONDARY ALCOHOL QUINOLINYL MODULATORS OF ROR GAMMA T” (Janssen Pharmaceutica NV, priority 2013, dated 2015)
Structures can show the parent of a compound that is named as a salt.

Columns and labels:
[1] = target: T1, human RORγt ligand binding domain (RORγt LBD) (Homo sapiens, UniProt P51449); experiment: ThermoFluor® Assay (RORγt thermal shift binding); settings: 0.065 mg/mL RORγt, 60 µM 1,8-ANS, pH 7.0; estimated from concentration response curves
T1 construct: His-tag (N); TurboTEV protease cleavage site (ENLYFQG) (N); made in house; host or cells: E. coli (pHIS1, modified pET vector)
T1 sequence (P51449 258-518): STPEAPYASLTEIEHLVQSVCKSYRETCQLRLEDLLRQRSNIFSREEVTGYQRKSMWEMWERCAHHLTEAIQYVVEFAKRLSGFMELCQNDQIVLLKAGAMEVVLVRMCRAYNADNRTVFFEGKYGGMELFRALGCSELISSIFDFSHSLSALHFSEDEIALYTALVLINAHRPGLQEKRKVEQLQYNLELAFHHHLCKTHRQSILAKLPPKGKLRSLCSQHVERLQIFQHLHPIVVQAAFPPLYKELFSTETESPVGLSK
Method: This approach is applicable to a wide variety of systems, and rigorous in theoretical interpretation through quantitation of equilibrium binding constants (KD).
The shift in the melting point described as a ΔTm is proportional to the concentration and affinity of the ligand. The compound potency may be compared as a rank order of either ATm values at a single compound concentration or in terms of KD values, estimated from concentration response curves.
ThermoFluor® experiments were carried out using instruments owned by Janssen Research and Discovery, L.L.C. through its acquisition of 3-Dimensional Pharmaceuticals, Inc. 1,8-ANS (Invitrogen) was used as a fluorescent dye. Protein and compound solutions are dispensed into black 384-well polypropylene PCR microplates (Abgene) and overlayed with silicone oil (1 µL, Fluka, type DC 200) to prevent evaporation.
Bar-coded assay plates are robotically loaded onto a thermostatically controlled PCR-type thermal block and then heated at a typical ramp-rate of 1 °C/minute for all experiments. Fluorescence was measured by continuous illumination with UV light (Hamamatsu LC6) supplied via fiber optic and filtered through a band-pass filter (380-400 nm; >6 OD cutoff). Fluorescence emission of the entire 384-well plate was detected by measuring light intensity using a CCD camera (Sensys, Roper Scientific) filtered to detect 500 ± 25 nm, resulting in simultaneous and independent readings of all 384 wells. Images were collected at each temperature, and the sum of the pixel intensity in a given area of the assay plate was recorded versus temperature. Reference wells contained RORyt without compounds, and the assay conditions were as follows: • 0.065 mg/mL RORγt • 60 µM 1,8-ANS • 100 mM Hepes, pH 7.0 • 10 mM NaCl • 2.5 mM GSH • 0.002% Tween-20
Project compounds were arranged in a pre-dosed mother plate (Greiner Bio-one) wherein compounds are serially diluted in 100% DMSO by 1:2 from a high concentration of 10 mM over 12 columns within a series (column 12 is a reference well containing DMSO, no compound). The compounds were robotically dispensed directly into assay plates (1x = 46 nL) using a Hummingbird capillary liquid handling instrument (Digilab). Following compound dispense, protein and dye in buffer was added to achieve the final assay volume of 3 µL, followed by 1 µL of silicone oil.

human RORγt LBD = target: T2, human RORγt LBD (Homo sapiens, UniProt P51449); experiment: RORγt (LBD) Reporter Assay (GAL4 luciferase, HEK293T cells); format: cell-based; settings: for inhibition at 6 µM: HEK-293T; for IC50: compounds for 24 hours
T2 construct: expressed in transfected cells; host or cells: HEK293T
T2 sequence (P51449 258-518): T1 sequence (P51449 258-518)
Method: Compounds were assessed for RORgt functional modulation using either the RORgt ligand binding domain (LBD) reporter assay, or the RORgt full-length (FL) reporter assay.
A reporter assay was used to test functional activity of RORγt modulatory compounds on transcriptional activation driven by the RORγt LBD. Cells used in the assay were co-transfected with two constructs. The first construct, pBIND-RORγt LBD, contained the wild type human RORγt LBD fused to the DNA binding domain of the GAL4 protein. The second construct, pGL4.31 (Promega Cat no. C935A), contained multiple GAL4 responsive DNA elements upstream of firefly luciferase. […] The mutant construct was called pBIND-RORγt-AF2.
The pBIND vector contains the GAL4 DNA Binding Domain (GAL4 DBD) and the renilla luciferase gene under control of the SV40 promoter. Renilla luciferase expression serves as a control for transfection efficiency and cell viability.
The reporter assay was performed by transiently transfecting HEK293T cells with 5 µg of pBIND-RORγt LBD or pBIND-RORγt LBD-AF2 and 5 µg pGL4.31 (Promega Cat no. C935A) using Fugene 6 (Invitrogen Cat no. E2691) at a 1:6 ratio of DNA: Fugene 6 in a T-75 flask in which cells were at least 80% confluent. Twenty four hours after bulk transfection, cells were plated into 96-well plates at 50,000 cells/well in phenol-red free DMEM containing 5% Lipid Reduced FCS and Pen/Strep. Six hours after plating, cells were treated with compounds for 24 hours. Media was removed and cells were lysed with 50 µL 1x Glo Lysis Buffer (Promega). Dual Glo Luciferase Reagent (50 µL/well) was then added and firefly luciferase luminescence was read on an Envision after a ten minute incubation. Finally, Stop and Glo reagent (50 µL/well) was added and renilla luciferase luminescence was read on an Envision after a ten minute incubation. To calculate the effect of compounds on RORγt activity, the ratio of firefly to renilla luciferase was determined and plotted against compound concentration. Agonist compounds increase RORγt-driven luciferase expression, and antagonist or inverse agonist compounds decrease luciferase expression.

Cc1cc(C(O)c2cncn2C)cc2c(Cl)c(-c3ccccc3)c(Cl)nc12 (centres unmarked) [Example 4, (2,4-Dichloro-8-methyl-3-phenylquinolin-6-yl)(1-methyl-1H-imidazol-5-yl)methanol•TFA] gave a Kd [1] of 4900 nM, an inhibition at 6 µM (human RORγt LBD; 6 µM compound) of -1% and an IC50 (human RORγt LBD) of over 6000 nM.
Work on COc1nc2ccc(C(O)c3ccc(C)nc3C)cc2c(Cl)c1Cc1ccc(C(F)(F)F)cc1 (centres unmarked) [Example 14a, (4-Chloro-2-methoxy-3-(4-(trifluoromethyl)benzyl)quinolin-6-yl)(2,6-dimethylpyridin-3-yl)methanol] yielded a Kd [1] of 71 nM.
COc1nc2ccc(C(O)c3cnnn3C)cc2c(Cl)c1Cc1ccc(C(F)(F)F)cc1 (centres unmarked) [Example 17a, (4-Chloro-2-methoxy-3-(4-(trifluoromethyl)benzyl)quinolin-6-yl)(1-methyl-1H-1,2,3-triazol-5-yl)methanol] was tested, and the Kd [1] was 64 nM, the inhibition at 6 µM (human RORγt LBD; 6 µM compound) was 99% and the IC50 (human RORγt LBD) was 310 nM.
Cn1cncc1C(O)c1ccc2nc(Cl)c(Cc3ccc(-n4cccn4)cc3)c(Cl)c2c1 (centres unmarked) [Example 7, (3-(4-(1H-Pyrazol-1-y1)benzyl)-2,4-dichloroquinolin-6-yl)(1-methyl-1H-imidazol-5-yl)methanol] showed a Kd [1] of 480 nM, an inhibition at 6 µM (human RORγt LBD; 6 µM compound) of 93% and an IC50 (human RORγt LBD) of about 2000 nM.
Cc1ncc(C(O)c2ccc3nc(Cl)c(-c4ccccc4)c(Cl)c3c2)n1C (centres unmarked) [Example 13, (2,4-Dichloro-3-phenylquinolin-6-yl)(1,2-dimethyl-1H-imidazol-5-yl)methanol] showed a Kd [1] of 1200 nM, an inhibition at 6 µM (human RORγt LBD; 6 µM compound) of 43% and an IC50 (human RORγt LBD) of over 6000 nM.
In the case of COc1nc2ccc(C(O)c3oc(C)nc3C)cc2c(Cl)c1Cc1ccc(C(F)(F)F)cc1 (centres unmarked) [Example 19, (4-Chloro-2-methoxy-3-(4-(trifluoromethyl)benzyl)quinolin-6-yl)(2,4-dimethyloxazol-5-yl)methanol], the Kd [1] is reported as 350 nM, the inhibition at 6 µM (human RORγt LBD; 6 µM compound) is reported as 79% and the IC50 (human RORγt LBD) is reported as 240 nM.
For Cn1cncc1C(O)c1ccc2nc(Cl)c(-c3ccccc3Cl)c(Cl)c2c1 (centres unmarked) [Example 3, (2,4-Dichloro-3-(2-chlorophenyl)quinolin-6-yl)(1-methyl-1H-imidazol-5-yl) methanol], the Kd [1] was 450 nM.
COc1nc2ccc(C(O)c3cnc(C)n3C)cc2c(Cl)c1Cc1ccc(F)cc1 (single isomer, unassigned) [Example 8c] was tested, and the “RORγt (LBD) Reporter Assay, % inhibition @ 6 µM” value (human RORγt LBD; 6 µM compound, 6 µM) was 37%.
OC(c1ccc(Cl)cc1)c1ccc2nc(Cl)c(-c3ccccc3)c(Cl)c2c1 (centres unmarked) [Example 35, (4-Chlorophenyl)(2,4-dichloro-3-phenylquinolin-6-yl)methanol] showed a Kd [1] of 25000 nM, an inhibition at 6 µM (human RORγt LBD; 6 µM compound) of 45% and an IC50 (human RORγt LBD) of over 6000 nM.
For COc1nc2ccc(C(O)C3CCN(C(C)=O)CC3)cc2c(Cl)c1Cc1ccc(C(F)(F)F)cc1 (centres unmarked) [Example 6, (1-Acetylpiperidin4-yl){4-chloro-2-methoxy-3-[4-(trifluoromethyl)benzyl]quinolin-6-yl}methanol], the Kd [1] was 220 nM, the inhibition at 6 µM (human RORγt LBD; 6 µM compound) was 95% and the IC50 (human RORγt LBD) was 790 nM.
Compound COc1nc2c(C)cc(C(O)c3cncn3C)cc2c(Cl)c1Cc1ccc(S(C)(=O)=O)cc1 (centres unmarked) [Example 10] has a Kd [1] of 3000 nM, an inhibition at 6 µM (human RORγt LBD; 6 µM compound) of 59% and an IC50 (human RORγt LBD) of about 6000 nM.
In the case of OC(c1ccncc1)c1ccc2nc(Cl)c(-c3ccccc3)c(Cl)c2c1 (centres unmarked) [Example 25, (2,4-Dichloro-3-phenylquinolin-6-yl)(pyridin-4-yl)methanol•TFA], the Kd [1] is reported as 1200 nM, the inhibition at 6 µM (human RORγt LBD; 6 µM compound) is reported as 47% and the IC50 (human RORγt LBD) is reported as over 6000 nM.
With COc1nc2c(C)cc(C(O)c3cncn3C)cc2c(Cl)c1Cc1cccc(C(F)(F)F)c1 (centres unmarked) [Example 11, (4-Chloro-2-methoxy-8-methyl-3-(3-(trifluoromethyl)benzyl)quinolin-6-yl)(1-methyl-1H-imidazol-5-yl)methanol] the Kd [1] was 150 nM, the inhibition at 6 µM (human RORγt LBD; 6 µM compound) was 24% and the IC50 (human RORγt LBD) was over 6000 nM.
Work on Cc1ncc(C(O)c2ccc3nc(N4CCC4)c(Cc4ccc(-n5cccn5)cc4)c(Cl)c3c2)n1C (single isomer, unassigned) [Example 21b, {2-Azetidin-1-yl-4-chloro-3-[4-(1H-pyrazol-1-yl)benzyl]quinolin-6-yl}(1,2-dimethyl-1H-imidazol-5-yl)methanol] yielded a Kd [1] of 260 nM, an inhibition at 6 µM (human RORγt LBD; 6 µM compound) of 88% and an IC50 (human RORγt LBD) of 690 nM.
Work on Cc1ncc(C(O)c2ccc3nc(N4CCC4)c(Cc4ccc(-n5cccn5)cc4)c(Cl)c3c2)n1C (centres unmarked) [Example 21a, {2-Azetidin-1-yl-4-chloro-3-[4-(1H-pyrazol-1-yl)benzyl]quinolin-6-yl)(1,2-dimethyl-1H-imidazol-5-yl)methanol] yielded a Kd [1] of 200 nM, an inhibition at 6 µM (human RORγt LBD; 6 µM compound) of 91% and an IC50 (human RORγt LBD) of 380 nM.
Compound COc1nc2ccc(C(O)c3cncn3C)cc2c(Cl)c1Cc1ccc(C(F)(F)F)cc1 (single isomer, unassigned) [Example 18b, (4-Chloro-2-methoxy-3-(4-(trifluoromethyl)benzyl)quinolin-6-yl)(1-methyl-1H-imidazol-5-yl)methanol] has a Kd [1] of 290 nM, an inhibition at 6 µM (human RORγt LBD; 6 µM compound) of 98% and an IC50 (human RORγt LBD) of 510 nM.
Compound OC(c1ccc(Cl)cc1)c1ccc2nc(Cl)c(-c3ccccc3Cl)c(Cl)c2c1 (centres unmarked) [Example 26, (4-Chlorophenyl)(2,4-dichloro-3-(2-chlorophenyl)quinolin-6-yl)methanol] has a Kd [1] of 1400 nM, an inhibition at 6 µM (human RORγt LBD; 6 µM compound) of 68% and an IC50 (human RORγt LBD) of about 3000 nM.
Work on COc1nc2ccc(C(O)C3CN(C(=O)OC(C)(C)C)C3)cc2c(Cl)c1Cc1ccc(C(F)(F)F)cc1 (centres unmarked) [Example 32, tert-Butyl-3-((4-chloro-2-methoxy-3-(4-(trifluoromethyl)benzyl)quinolin-6-yl)(hydroxy)methyl)azetidine-1-carboxylate] yielded a Kd [1] of 16000 nM, an inhibition at 6 µM (human RORγt LBD; 6 µM compound) of 84% and an IC50 (human RORγt LBD) of 2200 nM.
COc1nc2ccc(C(O)c3cncn3C)cc2c(Cl)c1Cc1ccc(C(F)(F)F)cc1 (centres unmarked) [Example 18a, (4-Chloro-2-methoxy-3-(4-(trifluoromethyl)benzyl)quinolin-6-yl)(1-methyl-1H-imidazol-5-yl)methanol] showed a Kd [1] of 240 nM, an inhibition at 6 µM (human RORγt LBD; 6 µM compound) of 96% and an IC50 (human RORγt LBD) of 380 nM.
Compound COc1nc2ccc(C(O)c3cnc(C)n3C)cc2c(Cl)c1Cc1ccc(F)cc1 (centres unmarked) [Example 8a] has a Kd [1] of 180 nM and an inhibition at 6 µM (human RORγt LBD; 6 µM compound) of 40%.
Cc1ncc(C(O)c2ccc3nc(N4CCC4)c(Cc4ccc(C(F)(F)F)cc4)c(Cl)c3c2)n1C (centres unmarked) [Example 22a, {2-Azetidin-1-yl-4-chloro-3-[4-(trifluoromethyl)benzyl]quinolin-6-yl}(1,2-dimethyl-1H-imidazol-5-yl)methanol] was tested, and the Kd [1] was 81 nM, the inhibition at 6 µM (human RORγt LBD; 6 µM compound) was 92% and the IC50 (human RORγt LBD) was 250 nM.
With OC(c1ccncc1)c1ccc2nc(Cl)c(Cc3ccccc3)c(Cl)c2c1 (centres unmarked) [Example 24, (3-Benzyl-2,4-dichloroquinolin-6-yl)(pyridin-4-yl)methanole•TFA] the Kd [1] was 230 nM, the inhibition at 6 µM (human RORγt LBD; 6 µM compound) was 41% and the IC50 (human RORγt LBD) was over 6000 nM.
